Results: patent US9388226B2, “Peptides modulating the activity of macrophages, useable for the treatment of rheumatoid arthritis” (Universite Paul Sabatier, priority 2006, dated 2016)
Non-standard residues stand in square brackets, D forms with d. No end group written: not given here. Cit = NC(=O)NCCC[C@H](N)C(=O)O

How the values were obtained:
[1] = system: ACPA binding to citrullinated human fibrinogen; experiment: ELISA competition assay: inhibition of the reactivity of IgG ACPA+ with respect to citrullinated fibrinogen; conditions: IgG ACPA+ 16 μg/ml; competitor 0.006 to 1.56 mg/ml added 2 h before ELISA; FIG. 2
Experimental: 96-well microtitration plates (MaxiSorp, Nunc, VWR International, Fontenay sous Bois, France) are coated with citrullinated human fibrinogen (prepared as indicated in example 1) at a rate of 100 μl/well of a solution at 5 μg/ml in PBS, pH 7.4, overnight at 4° C. The plates are then saturated with a solution of PBS containing 2% of BSA (PBS-2% BSA) (180 μl/well). After this step, the IgG ACPA+ (prepared as indicated in example 1), diluted beforehand to 16 μg/ml in PBS-2% BSA in the presence or absence of increasing amounts of the competitor peptides α36-50cit38, 42 and/or β60-74cit60, 72, 74 (each at a concentration ranging from 0.006 to 1.56 mg/ml) added 2 h before the ELISA assay, are added. The concentration used for the IgG ACPA+ was chosen because it makes it possible to obtain an OD of between 1 and 1.5 in the absence of competitor peptide. Citrullinated or noncitrullinated fibrinogen (0.0002 to 1.56 mg/ml) and the noncitrullinated forms of the α36-50cit38, 42 and β60-74cit60, 72, 74 peptides (respectively referred to as α36-50 and β60-74) are used as control. The ACPA binding is then detected with peroxidase-labeled anti-human IgG goat IgGs (SouthernBiotech, Birmingham, Ala.) diluted to 1/9000 in PBS-2% BSA. All the incubations are carried out for 1 h at 4° C. and are followed by washes in PBS-0.1% Tween 20.
The results of this ELISA competition assay are illustrated in FIG. 2. The data are representative of 3 experiments carried out with two different preparations of IgG ACPA+. The results are expressed as degree of inhibition of the reactivity obtained in the absence of competitor peptide.

human macrophages = experiment: Inhibition of the stimulation of human macrophages by ICs associating ACPAs and citrullinated fibrinogen, TNF-α in supernatants; type: cell-based; conditions: IgG ACPA+ 1.13 mg/ml; for TNFα level: citrullinated fibrinogen plates
Experimental: The reconstitution of ICs associating ACPAs and citrullinated fibrinogen is carried out by coating flat-bottomed 96-well culture plates (Nunclon delta, Nunc, Roskilde, Denmark), under sterile conditions, with human citrullinated fibrinogen at 10 μg/ml, added at a rate of 50 μl/well and incubated overnight at 4° C. The plates are subsequently saturated in PBS, pH 7.4, 2% BSA for 1 hour at 4° C. (180 μl/well). After 3 washes in PBS, pH 7.4, 0.1% Tween-20, the wells are incubated for 2 hours at 4° C. with 100 μl of IgG ACPA+ at various concentrations (ranging from 9 to 0.28 mg/ml) diluted in PBS containing 2% BSA and 2M NaCl. Negative controls are made up in the same way, using either noncitrullinated human fibrinogen as antigen coated at the bottom of the plate, or control IgGs as antibodies. Wells coated only with citrullinated or noncitrullinated human fibrinogen and saturated in PBS, pH 7.4, 2% BSA are also used as negative controls.
After 3 washes in PBS, pH 7.4, 0.1% Tween-20, then 3 washes in PBS, the macrophages are added at a rate of 50000 viable cells/well in a volume of 200 μl. After incubation for 24 hours at 37° C. under an atmosphere containing 5% CO2, the supernatants are recovered (160 μl/well) and are rapidly frozen at −20° C. until they are analyzed. The negative control for activation is carried out using macrophages in macrophage-SFM medium alone. Macrophages placed on aggregated IgGs immobilized at the bottom of the culture plates by passive adsorption (at a rate of 100 μl of a solution at 5 μg/ml per well), or placed in the presence of bacterial lipopolysaccharide (LPS, Escherichia coli 0.55:B5 at a final concentration of 0.5 μg/ml; Sigma-Aldrich Chimie), are used as controls for the ability of the macrophages to respond to a stimulus inducing TNF-α synthesis.
An ELISA assay kit for human TNF-α, comprising a capture antibody, a detection antibody and recombinant human TNF-α for making up a calibration range of 7.8 to 500 pg/ml, was used to assay this cytokine in the culture supernatants (Human TNF-alpha BD OptEIA™ ELISA et, BD Biosciences Pharmingen, Pont-de-Claix, France).
The preparation and the stimulation of the macrophages are carried out exactly under the conditions described in example 1, except for the fact that the reconstitution of ICs is carried out with IgG ACPA+ diluted to 1.13 mg/ml in PBS containing 2M of NaCl and 2% of BSA in the presence or absence of the competitor peptide β60-74cit60, 72, 74 at two concentrations (0.8 and 4 mg/ml) added 2 h before the incubation with the citrullinated fibrinogen immobilized at the bottom of the culture plates. Competitions with citrullinated or noncitrullinated fibrinogen (0.4 mg/ml) and also with the noncitrullinated peptide β60-74 (0.8 and 4 mg/ml), are also carried out as control.

[2] = system: ACPAs in sera from patients suffering from RA; experiment: Reactivity of fibrin-derived citrullinated peptides with sera from RA patients having ACPAs; type: binding, human; conditions: 20 sera from RA patients having detectable ACPAs
Text: Among these peptides, those which bear immunodominant epitopes (recognized by a large number of sera from patients suffering from RA) are given in table 2. The 20 sera tested correspond to a series originating from patients suffering from RA having ACPAs detectable by means of multiple tests for detecting these autoantibodies and which, taken as a whole, make it possible to represent the heterogeneity of the specificity profiles encountered in the patients.

Substance	percentage inhibition of the ACPA binding to the citrullinated fibrinogen, plateau value [1]	NUMBER OF REACTIVE SERA OUT OF THE 20 TESTED [2]	also measured
VDIDIKIXSCXGSCS (VDIDIKI[Cit]SC[Cit]GSCS; cysteine pairing not given here) [α171-185cit178, 181, fibrinogen α-chain derived citrullinated peptide, X = citrullyl residue]	–	9	–
SGIGTLDGFXHXHPD (SGIGTLDGF[Cit]H[Cit]HPD) [α501-515cit510, 512, fibrinogen α-chain derived citrullinated peptide, X = citrullyl residue]	–	9	–
XGHAKSXPVXGIHTS ([Cit]GHAKS[Cit]PV[Cit]GIHTS) [α621-635cit621, 627, 630, fibrinogen α-chain derived citrullinated peptide, X = citrullyl residue]	–	10	–

The next lines start with results.

percentage inhibition of the ACPA binding to the citrullinated fibrinogen, plateau value [1]	Substance	NUMBER OF REACTIVE SERA OUT OF THE 20 TESTED [2]	also measured
approximately 80%	citrullinated fibrinogen: purified human fibrinogen incubated with rabbit skeletal muscle peptidylarginine deiminase	–	TNFα level (human macrophages; fibrinogen competitor 0.4 mg/ml): approximately 20 pg/ml
approximately 60%	XPAPPPISGGGYXAX ([Cit]PAPPPISGGGY[Cit]A[Cit]-NH2) [β60-74cit60, 72, 74, fibrinogen β-chain derived citrullinated peptide, X = citrullyl residue]	14	TNFα level (human macrophages; competitor peptide 0.8 mg/ml): approximately 40 pg/ml; TNFα level (human macrophages; competitor peptide 4 mg/ml): less than 20 pg/ml; effect on TNF-α production in response to the ICs (in words) (human macrophages; competitor 0.8 and 4 mg/ml (peptide)): dose-dependent inhibition
approximately 15%	GPXVVEXHQSACKDS (GP[Cit]VVE[Cit]HQSACKDS) [α36-50cit38, 42, fibrinogen α-chain derived citrullinated peptide, X = citrullyl residue]	12	–
